Measurements: patent US20020082268A1, “Therapeutic compounds for the treatment of asthma and allergy, and methods of use thereof” (priority 2000, published 2002)
One block for each compound: values may come before it.

How the values were obtained:
[1] = target: T1, Histamine H1-receptor (peripheral) (Cavia porcellus, UniProt P31389); experiment: Histamine H1-receptor (peripheral) binding assay, [3H]pyrilamine, guinea-pig lung membranes; settings: 1 nM [3H]pyrilamine
T1 construct: Aliquots of guinea-pig lung membrane preparations corresponding to 800 μg protein are incubated; from tissue; host or cells: guinea-pig lung membranes
Description: Histamine H1-receptor (peripheral) binding assays were performed according to the literature procedure (ref: Dini, S., et al, Agents and Actions, 1991, 33:181-184). Aliquots of guinea-pig lung membrane preparations corresponding to 800 μg protein are incubated for 15 min at 22° C. in 500 μl of 50 mM Na2HPO4/KH2PO4 buffer (pH 7.5) containing 1 nM [^3H]pyrilamine and increasing concentrations of the competing drugs. Nonspecific binding is determined in the presence of 100 μM triprolidine. After incubation, the samples are filtered rapidly under vacuum through glass fiber filters (GF/B, Whatman) and rinsed several times with ice-cold 50 mM Na2HPO4/KH2PO4 using a cell harvester (Brandel). Bound radioactivity is measured with a scintillation counter (LS 6000, Beckman) using a liquid scintillation cocktail (Formula 989, Packard).The reference compound for this assay is pyrilamine.
The results are expressed as percent of control specific binding and as a percent inhibition of control specific binding obtained in the presence of the tested compounds. IC50 values (concentration causing a half-maximal inhibition of control activity) and Hill coefficients (nH) are determined by non-linear regression analysis of the concentration-response curves. These parameters are obtained by Hill equation curve fitting.

[2] = target: T2, 5-LO (UniProt P09917); experiment: 5-LO enzyme assay (RIA quantitation of 5-HETE); format: biochemical; settings: Procedure A (RBL-1 cells) or B (HL-60 cells), not given; read-out: Inhibition of 5-LO: IC50
T2 sequence (P09917 1-674): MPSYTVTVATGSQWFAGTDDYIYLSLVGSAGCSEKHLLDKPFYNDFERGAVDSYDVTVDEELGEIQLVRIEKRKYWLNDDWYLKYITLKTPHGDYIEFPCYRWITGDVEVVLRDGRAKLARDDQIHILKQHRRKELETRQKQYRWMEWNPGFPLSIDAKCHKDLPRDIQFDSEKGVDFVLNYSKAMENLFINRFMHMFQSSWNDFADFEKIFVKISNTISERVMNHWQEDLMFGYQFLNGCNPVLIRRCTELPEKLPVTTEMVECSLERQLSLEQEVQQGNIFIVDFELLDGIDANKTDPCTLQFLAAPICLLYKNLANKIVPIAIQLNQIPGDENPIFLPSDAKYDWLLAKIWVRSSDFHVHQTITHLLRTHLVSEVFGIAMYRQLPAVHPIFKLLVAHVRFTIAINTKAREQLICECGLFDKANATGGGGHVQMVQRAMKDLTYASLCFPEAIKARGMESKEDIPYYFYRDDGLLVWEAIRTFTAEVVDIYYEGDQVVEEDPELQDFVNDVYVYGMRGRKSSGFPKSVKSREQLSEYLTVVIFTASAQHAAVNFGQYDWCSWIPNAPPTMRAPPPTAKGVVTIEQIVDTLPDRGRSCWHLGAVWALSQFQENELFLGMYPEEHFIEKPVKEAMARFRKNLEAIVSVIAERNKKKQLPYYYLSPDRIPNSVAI
Description: 5-LO enzyme assays (radio-immuno assays (RIA)) were performed according to literature procedures (ref: (a) Egan, R. W., and Gale, P. H., J. Biol. Chem. 1985, 260:11554-11559; (b) Shimizu, T., Rdamark, O., and Samuelsson, B. Proc. Natl. Acad. Sci. USA, 1984, 81:689-693); (c) Coffey, M. et al., J. Biol. Chem. 1992, 267: 570-576) using commercially available kits or reagents.
Tissue/cell sources: Rat basophilic leukemia cells (RBL-1);
Substrate: Arachidonic acid (AA) at 14 μM;
Reaction: AA→5-HPETE→5-HETE, incubation at 25° C. for 8 min;
Method: RIA quantitation of 5-HETE, reference compound NGDA (nordihydroquaiaretic acid).
Tissue/cell sources: Human differentiated HL-60 cells;
Substrate: Arachidonic acid (AA) at 0.4 μM;
Reaction: AA→5-HPETE→5-HETE, incubation at 37° C. for 10 min;
The results are expressed as percent of control activity and as a percent inhibition of control activity obtained in the presence of the tested compounds.
IC50 values (concentration causing a half-maximal inhibition of control activity) and Hill coefficients (nH) are determined by non-linear regression analysis of the concentration-response curves. These parameters are obtained by Hill equation curve fitting.

[3] = test system: human differentiated HL-60 cells; experiment: LTB4 secretion assay in differentiated HL-60 cells (A23187, EIA); format: cell-based; settings: 0.5 h, A23187 5 uM, 37 C, 30 min, read-out: Inhibition of LTB4 secretion: IC50
Description: The assays were performed using human differentiated HL-60 cells using NDGA as reference compound following the literature procedure (Bennett, C. F. et al, Biochem. J., 1993, 289: 33-39). Substrate A23187 (5 uM) was incubated along with test compound in HL-60 cells at 37 C for 30 min. Reaction product LTB4 was detected by enzymeimmuno assays (EIA) using commercially available kits and a microplate reader.

T1 sequence (P31389 whole entry): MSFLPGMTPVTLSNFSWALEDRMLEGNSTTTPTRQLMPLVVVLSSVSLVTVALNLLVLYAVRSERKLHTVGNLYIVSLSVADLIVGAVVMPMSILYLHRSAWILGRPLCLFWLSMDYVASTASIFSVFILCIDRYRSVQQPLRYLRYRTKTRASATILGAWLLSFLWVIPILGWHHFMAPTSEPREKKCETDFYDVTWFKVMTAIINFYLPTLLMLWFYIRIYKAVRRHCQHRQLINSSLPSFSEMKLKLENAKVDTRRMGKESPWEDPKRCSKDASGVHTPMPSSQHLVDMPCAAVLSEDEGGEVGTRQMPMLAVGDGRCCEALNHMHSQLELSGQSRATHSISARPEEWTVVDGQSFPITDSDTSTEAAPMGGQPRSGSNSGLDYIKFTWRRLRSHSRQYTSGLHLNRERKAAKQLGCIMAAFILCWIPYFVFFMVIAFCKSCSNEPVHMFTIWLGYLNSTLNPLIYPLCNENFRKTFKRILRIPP

SMILES: Cc1cccc2c(=O)n(O)c(CN3CCC(=C4c5ccc(Cl)cc5CCc5cccnc54)CC3)nc12 [Entry 4]
IC50 [1]: < 10 µM | IC50 [2]: < 10 µM

SMILES: O=c1c2cc(F)ccc2nc(CN2CCC(=C3c4ccc(Cl)cc4CCc4cccnc43)CC2)n1O [Entry 5]
IC50 [1]: < 10 µM | IC50 [2]: < 10 µM

SMILES: O=C(O)c1ccc2nc(NC3CCN(c4nc5ccccc5n4Cc4ccc(F)cc4)CC3)n(O)c(=O)c2c1 [Entry 11]
IC50 [1]: < 10 µM | IC50 [2]: > 10 µM

SMILES: O=c1c2ccccc2nc(N2CCN(C(c3ccccc3)c3ccc(Cl)cc3)CC2)n1O (centres unmarked) [Entry 13]
IC50 [3]: < 10 µM | IC50 [1]: < 10 µM

SMILES: O=c1c2cc(Br)ccc2nc(N2CCC(Nc3nc4ccccc4n3Cc3ccc(F)cc3)CC2)n1O [Entry 14]
IC50 [3]: < 10 µM | IC50 [1]: < 1 µM | IC50 [2]: < 10 µM

SMILES: COc1ccc2nc(N3CCC(Nc4nc5ccccc5n4Cc4ccc(F)cc4)CC3)n(O)c(=O)c2c1 [Entry 16]
IC50 [3]: < 10 µM | IC50 [1]: < 1 µM | IC50 [2]: < 10 µM

SMILES: O=c1c2ccc(F)cc2nc(N2CCC(Nc3nc4ccccc4n3Cc3ccc(F)cc3)CC2)n1O [Entry 17]
IC50 [3]: < 10 µM | IC50 [1]: < 1 µM

SMILES: O=c1c2ccc(Cl)cc2nc(N2CCC(Nc3nc4ccccc4n3Cc3ccc(F)cc3)CC2)n1O [Entry 18]
IC50 [3]: < 10 µM | IC50 [1]: < 1 µM

SMILES: O=c1c2cc(Cl)ccc2nc(N2CCC(Nc3nc4ccccc4n3Cc3ccc(F)cc3)CC2)n1O [Entry 19]
IC50 [3]: < 10 µM | IC50 [1]: < 1 µM | IC50 [2]: < 1 µM

SMILES: COc1cccc2c(=O)n(O)c(N3CCC(Nc4nc5ccccc5n4Cc4ccc(F)cc4)CC3)nc12 [Entry 20]
IC50 [3]: > 10 µM | IC50 [1]: < 1 µM

SMILES: COc1cc2nc(N3CCC(Nc4nc5ccccc5n4Cc4ccc(F)cc4)CC3)n(O)c(=O)c2cc1OC [Entry 21]
IC50 [3]: < 10 µM | IC50 [1]: < 1 µM

SMILES: O=c1c2c(Cl)cccc2nc(N2CCC(Nc3nc4ccccc4n3Cc3ccc(F)cc3)CC2)n1O [Entry 22]
IC50 [3]: < 1 µM | IC50 [1]: < 1 µM

SMILES: Cc1cccc2nc(N3CCC(Nc4nc5ccccc5n4Cc4ccc(F)cc4)CC3)n(O)c(=O)c12 [Entry 23]
IC50 [3]: < 10 µM | IC50 [1]: < 1 µM

SMILES: O=c1c2cc([N+](=O)[O-])ccc2nc(N2CCC(Nc3nc4ccccc4n3Cc3ccc(F)cc3)CC2)n1O [Entry 24]
IC50 [3]: > 10 µM | IC50 [1]: < 1 µM

Second part, the compound after the results:

IC50 [1]: < 1 µM | IC50 [2]: < 1 µM
SMILES: O=c1c2ccccc2nc(CN2CCC(Nc3nc4ccccc4n3Cc3ccc(F)cc3)CC2)n1O [Entry 1]

IC50 [1]: < 1 µM | IC50 [2]: > 10 µM
SMILES: O=C(O)c1ccc2c(=O)n(O)c(CN3CCC(Nc4nc5ccccc5n4Cc4ccc(F)cc4)CC3)nc2c1 [Entry 2]

IC50 [1]: < 1 µM | IC50 [2]: < 10 µM
SMILES: O=C(O)c1ccc2c(=O)n(O)c(CN3CCC(=C4c5ccc(Cl)cc5CCc5cccnc54)CC3)nc2c1 [Entry 3]

IC50 [1]: < 1 µM | IC50 [2]: < 10 µM
SMILES: O=c1c2cc(F)c(F)cc2nc(CN2CCC(Nc3nc4ccccc4n3Cc3ccc(F)cc3)CC2)n1O [Entry 6]

IC50 [1]: < 1 µM | IC50 [2]: < 10 µM
SMILES: COc1ccc2nc(CN3CCC(Nc4nc5ccccc5n4Cc4ccc(F)cc4)CC3)n(O)c(=O)c2c1 [Entry 7]

IC50 [1]: < 0.1 µM | IC50 [2]: < 10 µM
SMILES: O=c1c2cc(O)ccc2nc(CN2CCC(Nc3nc4ccccc4n3Cc3ccc(F)cc3)CC2)n1O [Entry 8]

IC50 [1]: < 0.1 µM | IC50 [2]: > 10 µM
SMILES: O=C(O)c1ccc2nc(CN3CCC(Nc4nc5ccccc5n4Cc4ccc(F)cc4)CC3)n(O)c(=O)c2c1 [Entry 9]

IC50 [1]: < 1 µM | IC50 [2]: > 10 µM
SMILES: O=C(O)c1ccc2nc(N3CCC(Nc4nc5ccccc5n4Cc4ccc(F)cc4)CC3)n(O)c(=O)c2c1 [Entry 10]

IC50 [3]: < 10 µM | IC50 [1]: < 1 µM | IC50 [2]: < 10 µM
SMILES: O=c1c2ccccc2nc(N2CCC(Nc3nc4ccccc4n3Cc3ccc(F)cc3)CC2)n1O [Entry 12]

IC50 [3]: < 10 µM | IC50 [1]: < 0.1 µM | IC50 [2]: < 1 µM
SMILES: O=c1c2cc(F)ccc2nc(N2CCC(Nc3nc4ccccc4n3Cc3ccc(F)cc3)CC2)n1O [Entry 15]
